Assay [1] has as its system LPS triggered IL-10 secretion in monocytes. Nature of the assay: Monocytes assay: LPS-triggered IL-10 (ELISA). The class given is cell-based, human. The note with it: LPS 200 ng/mL, supernatant after 4 h, maximal fold change vs LPS only. As to the method: (§1) SIK inhibition inhibits TNFα and increases IL-10 release in LPS triggered monocyte-derived macrophages (MdM) and dendritic cells (MdDCs) (Clark et al. 2012; Sundberg et al. 2014; Ozanne et al. 2015). This assay evaluates illustrative compounds of the invention for their inhibition of LPS-induced TNFα and LPS triggered IL-10 secretion in monocytes.
(§2) PBMCs are isolated from human blood samples (buffycoats). The buffy coat is aseptically transferred into a 50 mL Falcon tube, and diluted 1/2 in PBS. Falcon tubes are filled with 20 mL Lymphoprep™, on top of which 25 mL of the buffy coat is carefully added, tubes are centrifuged for 35 min at 400 g in temperature controlled centrifuge, without brake, at 25° C. PBMCs are aspirated from the white interface layer between sample and Lymphoprep™. PBMCs are washed five times in PBS. Cells are resuspended in RPMI 1640 complete medium supplemented with 10% FBS, 1% P/S, and cell density is determined using a hematologic analyzer (Sysmex XS-500i).
(§3) PBMCs are centrifuged at 300×g for 10 min and resuspended at a density of 1.0*10^7 cells/80 μL Miltenyi buffer (PBS, pH 7.4, 1% FBS, 2 mM EDTA).
(§4) Starting from this point of the protocol all steps are performed on ice. 20 μL of CD14+ micro-beads are added per 1.0*10^7 cells, the tube is mixed and incubated for 15 min in the fridge at 4° C. Cell suspension volume is adjusted to total volume of 100 mL using Miltenyi buffer, mixed gently and subsequently centrifuged for 10 min at 300×g. Supernantant is discarded and cell pellet is resuspended in 12 mL of Miltenyi buffer.
(§5) Four LS columns are placed in the MACS Separator (magnet) from Miltenyi Biotec, and are prewet by rinsing with 3 mL of MACS buffer per column. Three mL of cell suspension is added onto the column (max 1*10^8 of labelled cells/column), and columns are subsequently washed 3 times with 3 mL of Miltenyi buffer.
(§6) The columns are removed from the magnets, and 5 mL of Miltenyi buffer are added to the column to flush out the CD14+ fraction by pushing the plunger into the column. The flushed fractions are collected in a fresh 50 mL Falcon and volume is adjusted to 30 mL using Miltenyi buffer, cells are centrifuged for 10 min at 300×g. The obtained cell pellet is resuspended in 10 mL RPMI w/o FBS, and cell density is determined using a hematologic analyser (Sysmex XS-500i). 100 000 cells are seeded in 80 μL per well of a 96-well plate in RPMI 1640 medium supplemented with 10% FBS, 1% P/S.
(§7) A compound dilution plate is made in 100% DMSO by 3-fold dilution of 10 mM stock solution. An intermediate dilution plate (10× final concentration) is made by diluting the compound dilution plate 50-fold in RPMI medium.
(§8) 10 μL of the 10× final concentration compound is added to the cells and incubated for 1 h at 37° C. before addition of trigger. No trigger conditions/trigger conditions are spiked with equal final DMSO concentrations of 0.2% DMSO. 10 μL of 10×LPS (final conc. 200 ng/mL) solution are added to all wells except for the ‘no trigger wells’ where 10 μL medium is added. Supernatant is collected after 4 h of LPS triggering.
A Lumitrac 600 Greiner 384-well plate is coated with 40 μL of capture antibody (final concentration of 1 μg/mL in 1×PBS) and stored overnight at 4° C. The next day the plate is washed three times with PBST (PBS+0.05% Tween20) and once with PBS followed by the addition of 100 μL of blocking buffer (1% BSA−5% Sucrose) and plates are sealed and incubated for at least 4 h at RT. After washing the plate once with PBST and once with PBS, 40 μL of standard or sample are added (IL-10 standard curve is prepared using a 1/2 serial dilution starting from […]; dilutions are made in dilution buffer (PBS+1% BSA)). Plates are washed twice with PBST, and once with PBS, after which 35 μL of the detection antibody is added (final concentration 0.143 μg/mL diluted in dilution buffer) and plates are incubated for at least 2 h at RT. […]
(In general: In an ELISA, binding on a coated surface is turned into a signal by an enzyme label.)

Another assay has as its target T1, SIK2 (Homo sapiens, UniProt Q9H0K1).
T1 construct: purchased ThermoFisher Scientific PV4792
As to the kind of experiment: ADP-Glo kinase assay, SIK2. It counts as biochemical. The following applies: ADP-Glo SIK kinase assay. The essentials: (§9)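 Enzyme–substrate mix was started with ATP and incubated 120 min at RT. ADP formed was quantified by ADP-Glo: 40 min ATP depletion, then 30 min detection reagent converting ADP to ATP for luciferase luminescence, which rises with kinase activity. Controls: 1% DMSO and 10 μM staurosporine (final).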
On the technique in general: ADP-Glo turns the ADP formed in a reaction into a luminescent signal.

For the next assay, the target named is T2, SIK3 (Homo sapiens, UniProt Q9Y2K2).
T2 construct: purchased SignalChem S12-11G-100
T2 sequence (Q9Y2K2 whole entry): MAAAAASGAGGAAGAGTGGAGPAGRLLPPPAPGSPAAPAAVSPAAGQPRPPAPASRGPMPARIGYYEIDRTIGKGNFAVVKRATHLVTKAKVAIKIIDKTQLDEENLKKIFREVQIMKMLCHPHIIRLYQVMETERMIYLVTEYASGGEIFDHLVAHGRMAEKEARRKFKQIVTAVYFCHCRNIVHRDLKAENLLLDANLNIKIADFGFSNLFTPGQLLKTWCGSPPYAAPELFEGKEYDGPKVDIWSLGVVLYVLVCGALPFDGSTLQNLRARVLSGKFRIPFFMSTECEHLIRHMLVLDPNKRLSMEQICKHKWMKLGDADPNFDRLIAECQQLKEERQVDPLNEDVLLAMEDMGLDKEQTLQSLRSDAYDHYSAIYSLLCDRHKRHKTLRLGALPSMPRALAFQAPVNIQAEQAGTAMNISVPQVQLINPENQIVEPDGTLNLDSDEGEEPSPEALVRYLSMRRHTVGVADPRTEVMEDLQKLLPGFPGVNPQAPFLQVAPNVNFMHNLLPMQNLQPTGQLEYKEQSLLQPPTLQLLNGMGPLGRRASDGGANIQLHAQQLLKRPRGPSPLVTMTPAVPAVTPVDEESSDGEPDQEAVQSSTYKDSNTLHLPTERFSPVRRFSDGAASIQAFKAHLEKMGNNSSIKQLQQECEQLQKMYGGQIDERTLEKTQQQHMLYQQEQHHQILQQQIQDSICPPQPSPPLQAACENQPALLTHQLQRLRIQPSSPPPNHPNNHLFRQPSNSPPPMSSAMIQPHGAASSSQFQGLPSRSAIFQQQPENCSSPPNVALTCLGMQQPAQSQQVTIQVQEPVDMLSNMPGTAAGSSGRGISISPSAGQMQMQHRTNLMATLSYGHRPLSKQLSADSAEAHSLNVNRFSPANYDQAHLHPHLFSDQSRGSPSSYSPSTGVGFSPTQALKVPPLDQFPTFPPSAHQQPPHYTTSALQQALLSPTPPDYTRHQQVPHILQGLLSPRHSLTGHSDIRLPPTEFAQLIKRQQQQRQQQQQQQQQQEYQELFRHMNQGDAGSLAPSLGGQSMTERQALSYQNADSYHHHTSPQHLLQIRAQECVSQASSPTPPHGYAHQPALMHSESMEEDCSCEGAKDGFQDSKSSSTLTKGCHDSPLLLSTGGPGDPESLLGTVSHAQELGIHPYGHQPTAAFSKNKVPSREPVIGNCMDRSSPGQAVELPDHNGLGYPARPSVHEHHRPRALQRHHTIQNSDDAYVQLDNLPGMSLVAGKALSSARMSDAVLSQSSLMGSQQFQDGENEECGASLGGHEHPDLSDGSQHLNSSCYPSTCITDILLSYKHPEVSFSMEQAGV
Nature of the assay: ADP-Glo kinase assay, SIK3. The note with it: ADP-Glo SIK kinase assay. The class given is biochemical. In a few lines: as §9

The target in another assay is T3, SIK1 (Homo sapiens, UniProt P57059).
T3 construct: purchased Carna Biosciences 02-131
T3 sequence (P57059 whole entry): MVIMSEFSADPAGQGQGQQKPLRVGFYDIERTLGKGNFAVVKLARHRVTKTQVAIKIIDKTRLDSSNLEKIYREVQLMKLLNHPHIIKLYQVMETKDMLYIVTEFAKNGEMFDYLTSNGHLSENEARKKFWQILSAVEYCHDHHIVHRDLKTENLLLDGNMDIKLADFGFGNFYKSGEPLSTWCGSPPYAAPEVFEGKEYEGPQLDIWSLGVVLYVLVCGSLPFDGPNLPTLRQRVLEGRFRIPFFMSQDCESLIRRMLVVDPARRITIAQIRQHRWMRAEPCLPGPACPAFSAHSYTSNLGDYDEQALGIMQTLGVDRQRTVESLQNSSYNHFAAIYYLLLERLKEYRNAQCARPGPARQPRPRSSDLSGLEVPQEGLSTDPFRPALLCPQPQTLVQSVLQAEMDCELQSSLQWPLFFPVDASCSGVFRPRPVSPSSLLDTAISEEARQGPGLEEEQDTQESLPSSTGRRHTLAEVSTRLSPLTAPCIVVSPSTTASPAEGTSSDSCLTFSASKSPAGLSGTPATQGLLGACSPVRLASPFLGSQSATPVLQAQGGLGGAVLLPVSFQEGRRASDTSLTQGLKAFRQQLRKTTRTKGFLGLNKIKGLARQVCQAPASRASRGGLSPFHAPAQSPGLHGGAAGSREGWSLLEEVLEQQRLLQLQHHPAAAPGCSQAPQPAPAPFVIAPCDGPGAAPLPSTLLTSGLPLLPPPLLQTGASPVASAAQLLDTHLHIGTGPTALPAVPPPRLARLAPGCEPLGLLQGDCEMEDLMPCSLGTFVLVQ
Nature of the assay: ADP-Glo kinase assay, SIK1. The class given is biochemical. The following applies: ADP-Glo SIK kinase assay. In a few lines: as §9

Assay [2] has as its system LPS-induced TNFα in monocytes. Nature of the assay: Monocytes assay: LPS-triggered TNFα (ELISA). The class given is cell-based, human. The following applies: Homo sapiens, Monocyte, LPS 200 ng/mL, supernatant after 4 h. As to the method: as §1, §2, §3, §4, §5, §6, §7, §8
A Lumitrac 600 Greiner 384-well plate is coated with 40 μL of capture antibody (BD Pharmingen, Cat #551220) reaching a final concentration of 1 μg/mL in 1×PBS and stored overnight at 4° C.
The plate is then washed once with PBST (PBS+0.05% Tween20) and once with PBS followed by the addition of 100 μL of blocking buffer (1% Bovine Serum Albumin (BSA)−5% Sucrose) and plates are sealed and incubated for at least 4 h at RT. After washing the plate once with PBST and once with PBS, […]. Plates are washed twice with PBST, and once with PBS, after which 35 μL of the detection antibody is added (final concentration 0.25 μg/mL diluted in dilution buffer) and plates are incubated for at least 2 h at RT. […]

What is called IC50 is the concentration needed to halve the response being measured. By EC50 is commonly meant the concentration giving half of the maximal effect. A lower EC50 goes with higher potency in that assay.

SMILES strings stand for the structures.

T1 sequence (Q9H0K1 whole entry): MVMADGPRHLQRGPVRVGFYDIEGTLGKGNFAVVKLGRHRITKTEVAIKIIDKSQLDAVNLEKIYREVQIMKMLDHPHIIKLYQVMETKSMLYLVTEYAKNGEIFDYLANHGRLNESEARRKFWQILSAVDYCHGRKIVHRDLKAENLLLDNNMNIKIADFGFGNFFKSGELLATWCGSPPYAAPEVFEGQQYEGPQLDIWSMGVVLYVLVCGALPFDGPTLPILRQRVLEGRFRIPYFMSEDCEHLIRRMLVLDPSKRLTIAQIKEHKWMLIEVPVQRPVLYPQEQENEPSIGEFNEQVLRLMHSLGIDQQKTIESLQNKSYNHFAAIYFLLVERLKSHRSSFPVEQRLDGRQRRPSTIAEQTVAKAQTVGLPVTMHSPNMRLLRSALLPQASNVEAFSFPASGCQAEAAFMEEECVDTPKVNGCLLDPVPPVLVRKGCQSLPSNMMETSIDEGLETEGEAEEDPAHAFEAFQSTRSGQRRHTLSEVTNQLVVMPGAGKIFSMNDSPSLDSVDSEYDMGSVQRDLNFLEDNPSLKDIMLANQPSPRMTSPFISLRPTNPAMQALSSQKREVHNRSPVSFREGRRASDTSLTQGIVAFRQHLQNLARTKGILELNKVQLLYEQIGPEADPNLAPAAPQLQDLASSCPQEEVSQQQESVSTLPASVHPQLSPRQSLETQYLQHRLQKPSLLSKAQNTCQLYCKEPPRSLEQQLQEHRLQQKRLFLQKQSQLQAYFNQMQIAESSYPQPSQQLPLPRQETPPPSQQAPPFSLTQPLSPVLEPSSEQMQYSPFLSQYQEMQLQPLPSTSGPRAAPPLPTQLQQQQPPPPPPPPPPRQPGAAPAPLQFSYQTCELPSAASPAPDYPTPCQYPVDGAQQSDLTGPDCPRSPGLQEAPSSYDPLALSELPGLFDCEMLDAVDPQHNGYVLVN

Consider `CCOC(=O)C1(C)CCN(CCCOc2ccn3c(-c4cc(OC)c(C(=O)NC5CC5)c(OC(F)F)c4)cnc3c2)CC1` [compound 380, ethyl 1-[3-[3-[4-(cyclopropylcarbamoyl)-3-(difluoromethoxy)-5-methoxy-phenyl]imidazo[1,2-a]pyridin-7-yl]oxypropyl]-4-methyl-piperidine-4-carboxylate], for which, in assay [1], the “IL-10 FCmax median” value is reported as “++ (>1.5-4.5)”. Also, the figures for the IC50 against SIK2, on SIK3 and at SIK1 were 0.01 to 10 nM, 0.01 to 10 nM and 10 to 100 nM, respectively. This molecule yielded an EC50 in assay [2] (4 h) of 0.1 to 100 nM.
On to `CCOC(=O)COc1ccn2c(-c3cc(OC)c(C(=O)NC4CC4)c(OC(F)F)c3)cnc2c1` [Cpd 268, ethyl 2-[3-[4-(cyclopropylcarbamoyl)-3-(difluoromethoxy)-5-methoxy-phenyl]imidazo[1,2-a]pyridin-7-yl]oxyacetate], for which the “IL-10 FCmax median” value in assay [1] is listed as “+++ (>4.5)”. Besides, the figures for the IC50 against SIK2, at SIK3 and on SIK1 were 10 to 100 nM, 0.01 to 10 nM and 10 to 100 nM, respectively. The EC50 in assay [2] (4 h) was in the range of 100 to 1000 nM.
`COc1cc(-c2cnc3cc(OCCCN4CCOCC45CCC5)ccn23)cc(OC(F)F)c1C(=O)NC1CC1` [compound 281, N-cyclopropyl-2-(difluoromethoxy)-6-methoxy-4-[7-[3-(8-oxa-5-azaspiro[3.5]nonan-5-yl)propoxy]imidazo[1,2-a]pyridin-3-yl]benzamide]: the “IL-10 FCmax median” value in assay [1] is recorded as “+++ (>4.5)”. Also, the IC50 on SIK2, against SIK3 and against SIK1 was 0.01 to 10 nM each time. The molecule also came in with an EC50 in assay [2] (4 h) of 0.1 to 100 nM.
`COc1cc(-c2cnc3cc(OCCCN4CC(O)C(F)(F)C4)ccn23)cc(OC(F)F)c1C(=O)NC1CC1` (stereo not shown) [compound 345, N-cyclopropyl-4-[7-[3-(3,3-difluoro-4-hydroxy-pyrrolidin-1-yl)propoxy]imidazo[1,2-a]pyridin-3-yl]-2-(difluoromethoxy)-6-methoxy-benzamide]: the “IL-10 FCmax median” value in assay [1] is listed as “+++ (>4.5)”. The values for the IC50 against SIK2, against SIK3 and against SIK1 were 0.01 to 10 nM, 0.01 to 10 nM and 10 to 100 nM, respectively. This molecule also registered a concentration giving a half-maximal response (EC50) in assay [2] (4 h) of 0.1 to 100 nM.
As to `COc1cc(-c2cnc3cc(OCC(O)CN4CC(O)(C(F)(F)F)C4)ccn23)cc(OC(F)F)c1C(=O)NC1CC1` (stereo not shown) [compound 375, N-cyclopropyl-2-(difluoromethoxy)-4-[7-[2-hydroxy-3-[3-hydroxy-3-(trifluoromethyl)azetidin-1-yl]propoxy]imidazo[1,2-a]pyridin-3-yl]-6-methoxy-benzamide], in assay [1], the “IL-10 FCmax median” value is “+++ (>4.5)”. The IC50 against SIK2 was 0.01 to 10 nM; against SIK3, 0.01 to 10 nM; at SIK1 it was 10 to 100 nM. Also, the 50% effective concentration (EC50) in assay [2] (4 h) is 100 to 1000 nM.
In the case of `COc1cc(-c2cnc3cc(OCCCN4CC5CCC(C4)O5)ccn23)cc(OC(F)F)c1C(=O)NC1CC1` [compound 291, N-cyclopropyl-2-(difluoromethoxy)-6-methoxy-4-[7-[3-(8-oxa-3-azabicyclo[3.2.1]octan-3-yl)propoxy]imidazo[1,2-a]pyridin-3-yl]benzamide], in assay [1], the “IL-10 FCmax median” value is reported as “+++ (>4.5)”. For the same molecule, the values for the half-inhibitory concentration (IC50) against SIK2, against SIK3 and on SIK1 were 0.01 to 10 nM, 0.01 to 10 nM and 10 to 100 nM, respectively. For the same molecule, in assay [2] (4 h), the EC50 lay within 0.1 to 100 nM.
For `COc1cc(-c2cnc3cc(OCCCN4CCN(C(C)C)CC4)ccn23)cc(OC(F)F)c1C(=O)NC1CC1` [Cpd 279, N-cyclopropyl-2-(difluoromethoxy)-4-[7-[3-(4-isopropylpiperazin-1-yl)propoxy]imidazo[1,2-a]pyridin-3-yl]-6-methoxy-benzamide], the “IL-10 FCmax median” value in assay [1] was “+++ (>4.5)”. For the same molecule, the IC50 at SIK2, against SIK3 and on SIK1 was 0.01 to 10 nM throughout. In assay [2] (4 h), this molecule displayed an EC50 of 0.1 to 100 nM.
Consider `COc1cc(-c2cnc3cc(OCCC4CCCN4C4COC4)ccn23)cc(OC(F)F)c1C(=O)NC1CC1` (stereo not shown) [compound 299, N-cyclopropyl-2-(difluoromethoxy)-6-methoxy-4-[7-[2-[1-(oxetan-3-yl)pyrrolidin-2-yl]ethoxy]imidazo[1,2-a]pyridin-3-yl]benzamide], for which the “IL-10 FCmax median” value in assay [1] is given as “+++ (>4.5)”. Besides, the half-maximal inhibitory concentration (IC50) is 0.01 to 10 nM at SIK2, 0.01 to 10 nM at SIK3 and 10 to 100 nM on SIK1. In assay [2] (4 h), this molecule gave a 50% effective concentration (EC50) of 0.1 to 100 nM.
Take `COc1cc(-c2cnc3cc(OC[C@@H]4CCCNC4)ccn23)cc(OC(F)F)c1C(=O)NC1CC1` [Cpd 335, N-cyclopropyl-2-(difluoromethoxy)-6-methoxy-4-[7-[[(3R)-3-piperidyl]methoxy]imidazo[1,2-a]pyridin-3-yl]benzamide]: the “IL-10 FCmax median” value in assay [1] is recorded as “+++ (>4.5)”. Besides, the IC50 against SIK2 is 0.01 to 10 nM; on SIK3, 0.01 to 10 nM; against SIK1, 10 to 100 nM. For the same molecule, the EC50 in assay [2] (4 h) is 100 to 1000 nM.
As to `CCOC(=O)CN1[C@@H]2CC[C@H]1CC(Oc1ccn3c(-c4cc(OC)c(C(=O)NC5CC5)c(OC(F)F)c4)cnc3c1)C2` (stereo partly drawn) [compound 272, ethyl 2-[(1R,5S)-3-[3-[4-(cyclopropylcarbamoyl)-3-(difluoromethoxy)-5-methoxy-phenyl]imidazo[1,2-a]pyridin-7-yl]oxy-8-azabicyclo[3.2.1]octan-8-yl]acetate], the “IL-10 FCmax median” value in assay [1] is listed as “+++ (>4.5)”. Also, the IC50 against SIK2 fell in the range of 10 to 100 nM; on SIK3, 10 to 100 nM; against SIK1 it was 100 to 500 nM. Also, the EC50 in assay [2] was 0.1 to 100 nM.
Consider `COc1cc(-c2cnc3cc(OCCCN4CCC(F)(C(N)=O)CC4)ccn23)cc(OC(F)F)c1C(=O)NC1CC1` [Cpd 361, l-[3-[3-[4-(cyclopropylcarbamoyl)-3-(difluoromethoxy)-5-methoxy-phenyl]imidazo[1,2-a]pyridin-7-yl]oxypropyl]-4-fluoro-piperidine-4-carboxamide], for which, in assay [1], the “IL-10 FCmax median” value is “++ (>1.5-4.5)”. The half-maximal inhibitory concentration (IC50) against SIK2 lay within 0.01 to 10 nM; against SIK3, 0.01 to 10 nM; against SIK1, 10 to 100 nM. In addition, in assay [2] (4 h), the EC50 lay in the range of 0.1 to 100 nM.

Source of the values: patent publication US12264156B2, “Compounds and pharmaceutical compositions thereof for the treatment of diseases” (GALAPAGOS NV, priority 2018, dated 2025).
